This note sets out measurements from patent US10272081B2, “SHIP1 modulators and methods related thereto” (Aquinox Pharmaceuticals (Canada) Inc., priority 2013, dated 2019).

Structures are written as SMILES.

This assay concerns the target T1, His-hSHIP1 enzyme (Homo sapiens, UniProt Q92835).
T1 construct: His
T1 sequence (Q92835 1-1189): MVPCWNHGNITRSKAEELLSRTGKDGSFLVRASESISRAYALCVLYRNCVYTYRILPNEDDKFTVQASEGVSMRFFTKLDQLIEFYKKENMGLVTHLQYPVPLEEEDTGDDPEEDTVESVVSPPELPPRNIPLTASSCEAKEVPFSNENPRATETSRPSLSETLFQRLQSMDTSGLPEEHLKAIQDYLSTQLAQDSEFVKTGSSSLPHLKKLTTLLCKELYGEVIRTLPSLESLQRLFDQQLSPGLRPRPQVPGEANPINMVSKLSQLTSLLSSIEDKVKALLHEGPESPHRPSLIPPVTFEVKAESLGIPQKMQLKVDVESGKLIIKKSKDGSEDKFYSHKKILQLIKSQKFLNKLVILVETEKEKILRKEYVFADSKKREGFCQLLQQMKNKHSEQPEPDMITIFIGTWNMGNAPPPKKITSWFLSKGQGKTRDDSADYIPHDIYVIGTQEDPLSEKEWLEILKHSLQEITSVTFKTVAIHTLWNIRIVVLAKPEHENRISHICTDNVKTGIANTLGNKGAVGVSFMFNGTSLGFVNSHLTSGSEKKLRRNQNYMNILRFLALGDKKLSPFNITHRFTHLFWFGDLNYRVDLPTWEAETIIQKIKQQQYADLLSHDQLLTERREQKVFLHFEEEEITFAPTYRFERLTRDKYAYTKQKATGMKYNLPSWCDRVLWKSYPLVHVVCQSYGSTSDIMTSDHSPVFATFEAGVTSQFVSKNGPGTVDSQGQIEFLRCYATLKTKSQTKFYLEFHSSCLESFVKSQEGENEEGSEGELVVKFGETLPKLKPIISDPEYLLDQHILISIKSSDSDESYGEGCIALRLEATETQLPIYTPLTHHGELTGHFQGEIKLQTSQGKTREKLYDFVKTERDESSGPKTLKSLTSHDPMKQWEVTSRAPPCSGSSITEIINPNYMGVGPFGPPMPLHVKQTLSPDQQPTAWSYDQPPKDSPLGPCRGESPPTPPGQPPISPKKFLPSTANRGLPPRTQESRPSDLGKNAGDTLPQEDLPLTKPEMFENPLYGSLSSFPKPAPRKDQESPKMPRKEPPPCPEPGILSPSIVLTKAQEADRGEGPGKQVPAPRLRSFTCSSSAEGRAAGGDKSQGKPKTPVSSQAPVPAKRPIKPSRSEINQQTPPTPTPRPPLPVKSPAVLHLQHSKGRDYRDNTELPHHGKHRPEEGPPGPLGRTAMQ
As to the kind of experiment: His-hSHIP1 activity, approach 1 (phosphate release from IP4, Biomol Green). Format: biochemical. To be noted: activation of His-hSHIP1; IP4 50 μM; test compound 0-300 μM; no asterisk in Table 2. On the procedure: Test compounds are dissolved in 95% ethanol to form stock solutions. Before screening, the stock solutions are diluted with Phosphatase Assay Buffer (20 mM Tris-HCL, 10 mM MgCl2 pH 7.5, 0.02% Tween 20) to form working assay solutions that contain 10% ethanol. The assay is carried out on 96-well microtiter plates using a modified procedure of that reported by Ong et al., Blood 110, 1942-1949, 2007 and Yang et al., Org Lett 7, 1073-1076, 2005, both of which references are incorporated herein by reference in their entirety.
Data were generated by one of two variant methods. Test compounds are screened by one of two approaches described as follows. In the first approach, each reaction contains 5 μL of His-hSHIP1 enzyme (5-20 ng), 10 μL of the substrate, 1,3,4,5-inositol tetrakisphosphate (IP4; 50 μM final), 5 μL of Phosphatase Assay Buffer, and 5 µL of test compound at various concentrations in 10% ethanol (0-300 μM final). Control blanks are also prepared by replacing His-hSHIP1 enzyme, IP4, or test compounds with Phosphatase Assay Buffer. After adding the reaction components in a 96-well microtiter plate on ice, the reaction is mixed by briefly shaking the plate vigorously. The reaction is then incubated at 37° C. for 15 min with gentle shaking followed by addition of 100 μL of Biomol Green Reagent (BIOMOL, Pa., USA) to terminate the reaction. The free phosphate released from IP4 by His-hSHIP1 binds to the Biomol Green Reagent, which turns the dye to green color. After incubating the mixture for 20 min at room temperature for color development, the absorbance is read with SpectraMax Plus 96-well plate reader (Molecular Devices, Sunnyvale, Calif., USA) at a wavelength of 650 nm.
On to `COc1cc(O)cc(C(=O)C[C@H]2[C@@H](C)CC[C@H]3C(C)(C)CCC[C@]23C)c1` [Compound No. 47, 2-[(1S,2S,4aS,8aR)-2,5,5,8a-tetramethyl-decahydronaphthalen-1-yl]-1-(3-hydroxy-5-methoxyphenyl)ethan-1-one], for which the “Scoring, Approach 1 (% increase relative to background)” value is listed as “++ (50 ≤ x < 65)”. On to `COc1cc(OC)cc(C(=O)[C@H]2[C@H](C)[C@H](N)C[C@H]3C(C)(C)CCC[C@]23C)c1` [Compound No. 55, (2R,3S,4S,4aS,8aS)-4-[(3,5-dimethoxyphenyl)carbonyl]-3,4a,8,8-tetramethyl-decahydronaphthalen-2-amine], for which the “Scoring, Approach 1 (% increase relative to background)” value was “+ (0 < x < 50)”. `COc1cc(OC)cc(C(=O)[C@H]2[C@@H](C)C(=O)C[C@H]3C(C)(C)CCC[C@]23C)c1` [Compound No. 53, (3R,4S,4aS,8aS)-4-[(3,5-dimethoxyphenyl)carbonyl]-3,4a,8,8-tetramethyl-decahydronaphthalen-2-one]: the “Scoring, Approach 1 (% increase relative to background)” value is recorded as “++ (50 ≤ x < 65)”. `COc1ccc(CN[C@@H]2C[C@H]3C(C)(C)CCC[C@]3(C)[C@@H](C(=O)c3cc(OC)cc(OC)c3)[C@@H]2C)cc1` [Compound No. 54, (2R,3S,4S,4aS,8aS)-4-[(3,5-dimethoxyphenyl)carbonyl]-N-[(4-methoxyphenyl)methyl]-3,4a,8,8-tetramethyl-decahydronaphthalen-2-amine]: the “Scoring, Approach 1 (% increase relative to background)” value is “++ (50 ≤ x < 65)”. On to `C[C@H]1CC[C@H]2C(C)(C)CCC[C@]2(C)[C@H]1CCc1cc(O)cc(O)c1` [Compound No. 62, 5-{2-[(1S,2S,4aS,8aR)-2,5,5,8a-tetramethyl-decahydronaphthalen-1-yl]ethyl}benzene-1,3-diol], for which the “Scoring, Approach 1 (% increase relative to background)” value is “+++ (x ≥65)”. Take `C[C@@H]1[C@H](N)C[C@H]2C(C)(C)CCC[C@]2(C)[C@H]1C(=O)c1cc(O)cc(O)c1` [Compound No. 56, 5-{[(1S,2S,3R,4aS,8aS)-3-amino-2,5,5,8a-tetramethyl-decahydronaphthalen-1-yl]carbonyl}benzene-1,3-diol]: the “Scoring, Approach 1 (% increase relative to background)” value is given as “+ (0 < x < 50)”. In the case of `Cc1cc(O)cc(C[C@H]2[C@@H](CO)CC[C@H]3C(C)(C)CCC[C@]23C)c1` [Compound No. 17, 3-{[(1S,2S,4aS,8aR)-2-(hydroxymethyl)-5,5,8a-trimethyl-decahydronaphthalen-1-yl]methyl}-5-methylphenol], the “Scoring, Approach 1 (% increase relative to background)” value is “++ (50 ≤ x < 65)”. As for `COc1cc(C)cc(C(=O)[C@H]2[C@H](C)C(NCCCN)C[C@H]3C(C)(C)CCC[C@]23C)c1.Cl.Cl` (stereo partly drawn) [Compound No. 11, (3S,4S,4aS,8aS)-N-(3-aminopropyl)-4-[(3-methoxy-5-methylphenyl)carbonyl]-3,4a,8,8-tetramethyl-decahydronaphthalen-2-amine dihydrochloride], the entry is “+++ (x ≥65)”; as for `COc1cc(OC)cc(C(=O)[C@H]2[C@@H](C)[C@H](O)C[C@H]3C(C)(C)CCC[C@]23C)c1` [Compound No. 52, (2R,3R,4S,4aS,8aS)-4-[(3,5-dimethoxyphenyl)carbonyl]-3,4a,8,8-tetramethyl-decahydronaphthalen-2-ol], “+++ (x ≥65)”; as for `COc1cc(OC)cc(C(=O)C[C@H]2[C@@H](C)CC[C@H]3C(C)(C)CCC[C@]23C)c1` [Compound No. 46, 2-[(1S,2S,4aS,8aR)-2,5,5,8a-tetramethyl-decahydronaphthalen-1-yl]-1-(3,5-dimethoxyphenyl)ethan-1-one], “++ (50 ≤ x < 65)”. Regarding `CC1=CC[C@H]2C(C)(C)CCC[C@]2(C)C1C(=O)c1cc(C)cc(O)c1` (stereo partly drawn) [Compound No. 4, 3-{[(4aS,8aS)-2,5,5,8a-tetramethyl-1,4,4a,5,6,7,8,8a-octahydronaphthalen-1-yl]carbonyl}-5-methylphenol], the “Scoring, Approach 1 (% increase relative to background)” value is listed as “++ (50 ≤ x < 65)”. With `Cc1cc(O)cc(C(=O)[C@H]2[C@H](C)C(=O)C[C@H]3C(C)(C)CCC[C@]23C)c1` [Compound No. 8, (3S,4S,4aS,8aS)-4-[(3-hydroxy-5-methylphenyl)carbonyl]-3,4a,8,8-tetramethyl-decahydronaphthalen-2-one], the “Scoring, Approach 1 (% increase relative to background)” value is “+ (0 < x < 50)”. With `Cc1cc(O)cc(C(=O)[C@H]2[C@H](C)C(C(N)=O)C[C@H]3C(C)(C)CCC[C@]23C)c1` (stereo partly drawn) [Compound No. 65, (3S,4S,4aS,8aS)-4-[(3-hydroxy-5-methylphenyl)carbonyl]-3,4a,8,8-tetramethyl-decahydronaphthalene-2-carboxamide], the “Scoring, Approach 1 (% increase relative to background)” value is given as “+++ (x ≥65)”.

Take `COc1cc(C)cc(OC[C@H]2C(C)C(O)C[C@H]3C(C)(C)CCC[C@]23C)c1` (stereo partly drawn) [Compound No. 30, (4S,4aS,8aS)-4-(3-methoxy-5-methylphenoxymethyl)-3,4a,8,8-tetramethyl-decahydronaphthalen-2-ol]: the “Scoring, Approach 1 (% increase relative to background)” value is reported as “+ (0 < x < 50)”.

Regarding `COc1cc(OC)cc(C(=O)[C@H]2C(C)=CC[C@H]3C(C)(C)CCC[C@]23C)c1` [Compound No. 51, [(1S,4aS,8aS)-2,5,5,8a-tetramethyl-1,4,4a,5,6,7,8,8a-octahydronaphthalen-1-yl](3,5-dimethoxyphenyl)methanone], the “Scoring, Approach 1 (% increase relative to background)” value is reported as “++ (50 ≤ x < 65)”. Consider `CC1=CC[C@H]2C(C)(C)CCC[C@]2(C)[C@H]1COc1cc(C)cc(O)c1` [Compound No. 29, 3-{[(1S,4aS,8aS)-2,5,5,8a-tetramethyl-1,4,4a,5,6,7,8,8a-octahydronaphthalen-1-yl]methoxy}-5-methylphenol], for which the “Scoring, Approach 1 (% increase relative to background)” value is recorded as “+++ (x ≥65)”.

Take `CC1=C(C(=O)Nc2cc(O)cc(O)c2)[C@@]2(C)CCCC(C)(C)[C@@H]2CC1` [Compound No. 43, (4aS,8aS)-N-(3,5-dihydroxyphenyl)-2,5,5,8a-tetramethyl-3,4,4a,5,6,7,8,8a-octahydronaphthalene-1-carboxamide]: the “Scoring, Approach 1 (% increase relative to background)” value was “+ (0 < x < 50)”. In the case of `COc1cc(OC)cc(C(=O)[C@@H]2[C@@]3(C)CCCC(C)(C)[C@@H]3CC[C@@]2(C)O)c1` [Compound No. 50, (1R,2R,4aS,8aS)-1-[(3,5-dimethoxyphenyl)carbonyl]-2,5,5,8a-tetramethyl-decahydronaphthalen-2-ol], the “Scoring, Approach 1 (% increase relative to background)” value is reported as “++ (50 ≤ x < 65)”.

`Cc1cc(O)cc(C(=O)C2[C@@H](C)[C@H](O)C[C@H]3C(C)(C)CCC[C@]23C)c1` (stereo partly drawn) [Compound No. 9, (2R,3R,4aS,8aS)-4-[(3-hydroxy-5-methylphenyl)carbonyl]-3,4a,8,8-tetramethyl-decahydronaphthalen-2-ol]: the “Scoring, Approach 1 (% increase relative to background)” value is recorded as “+ (0 < x < 50)”.

With `COc1cc(C)cc(OC[C@@H]2[C@@]3(C)CCCC(C)(C)[C@@H]3CC[C@@]2(C)O)c1` [Compound No. 27, (1S,2R,4aS,8aS)-1-(3-methoxy-5-methylphenoxymethyl)-2,5,5,8a-tetramethyl-decahydronaphthalen-2-ol], the “Scoring, Approach 1 (% increase relative to background)” value is “++ (50 ≤ x < 65)”.
